From ChEMBL document CHEMBL5120864, “Targeting Enhancer of Zeste Homolog 2 for the Treatment of Hematological Malignancies and Solid Tumors: Candidate Structure-Activity Relationships Insights and Evolution Prospects” (J Med Chem, 2022) come the findings set out here.

pIC50: −log10 of the molar value. Values after ≈ are worked out from the molar mass of the structure shown. A value given as a limit tells only on which side of the number the result lay.

Series [1] concerns the target T1, Histone-lysine N-methyltransferase EZH2 (Homo sapiens, UniProt Q15910).
A further series relates to NCI-H1299. The series is described as follows: cells. Conditions: Homo sapiens. It counts as functional, cell-based.
The subject of a further series is NCI-H1975. In words: cells. The settings on record: Homo sapiens. It counts as functional, cell-based.
For series [2], the system named is PC-3. The series is described as follows: cells. It counts as functional, cell-based. Conditions: Homo sapiens.
Another series has as its system A549. The series is described as follows: cells. The class given is functional, cell-based. Conditions: Homo sapiens.
The next series is described as follows: in vivo. The settings on record: rat.
In series [3] the test system is MDA-MB-231. In words: cells. It counts as functional, cell-based. The settings on record: Homo sapiens, MDA-MB-231, 72 h.
The nature of series [4]: cells. It counts as functional, cell-based. The settings on record: Homo sapiens, WSU-FSCCL, 48 h.
A further series has as its system BT-474. In words: cells. The class given is functional, cell-based. The settings on record: Homo sapiens, BT-474, 72 h.
Series [5] addresses T2, Histone-lysine N-methyltransferase EZH1 (Homo sapiens, UniProt Q92800).
T2 sequence (Q92800 whole entry): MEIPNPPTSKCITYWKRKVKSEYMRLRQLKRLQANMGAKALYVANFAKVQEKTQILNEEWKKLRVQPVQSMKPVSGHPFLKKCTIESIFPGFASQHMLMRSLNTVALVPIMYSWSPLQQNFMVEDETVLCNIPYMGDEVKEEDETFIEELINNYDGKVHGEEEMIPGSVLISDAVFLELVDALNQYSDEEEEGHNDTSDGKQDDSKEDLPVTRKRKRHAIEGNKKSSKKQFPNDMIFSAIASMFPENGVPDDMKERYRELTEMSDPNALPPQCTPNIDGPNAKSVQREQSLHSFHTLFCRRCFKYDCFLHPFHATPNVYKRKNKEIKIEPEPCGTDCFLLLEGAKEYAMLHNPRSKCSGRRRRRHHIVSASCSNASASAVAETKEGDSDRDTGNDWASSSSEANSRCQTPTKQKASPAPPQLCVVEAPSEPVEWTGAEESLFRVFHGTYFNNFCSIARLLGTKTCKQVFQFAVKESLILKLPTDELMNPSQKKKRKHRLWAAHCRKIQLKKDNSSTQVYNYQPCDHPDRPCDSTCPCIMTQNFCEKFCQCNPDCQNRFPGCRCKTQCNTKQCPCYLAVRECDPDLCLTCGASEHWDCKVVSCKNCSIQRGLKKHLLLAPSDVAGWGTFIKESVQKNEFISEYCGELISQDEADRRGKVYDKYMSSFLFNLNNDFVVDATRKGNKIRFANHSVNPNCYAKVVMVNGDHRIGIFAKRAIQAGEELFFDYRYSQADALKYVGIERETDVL

Series [6] has as its system SU-DHL-6. In words: cells. It counts as functional, cell-based. Conditions: Homo sapiens.
For series [7], the system named is Pfeiffer. The series is described as follows: cells. It counts as functional, cell-based. Conditions: Homo sapiens.
Series [8] has as its system HepG2. It counts as functional, Homo sapiens. The settings on record: time 24 hrs.
Series [9] relates to HepG2. The series is described as follows: cells. It counts as functional, cell-based. Conditions: Homo sapiens, HepG2, 24 h.
Series [10] relates to MCF7. In words: cells. It counts as functional, cell-based. The settings on record: Homo sapiens, MCF7, 24 h.
Series [11] deals with PC-3. The series is described as follows: cells. It counts as functional, cell-based. Conditions: Homo sapiens, PC-3, 24 h.
For series [12], the system named is MCF7. The class given is functional, Homo sapiens. The settings on record: time 24 hrs.
Series [13] deals with PC-3. The class given is functional, Homo sapiens. Conditions: time 24 hrs.
The subject of a further series is HCT-15. In words: cells. The class given is functional, cell-based. Conditions: Homo sapiens, HCT-15, 96 h.
The subject of series [14] is MDA-MB-231. In words: cells. It counts as functional, cell-based. The settings on record: Homo sapiens, MDA-MB-231, 96 h.
The target of series [15] is T3, Protein cereblon/Histone-lysine N-methyltransferase EZH2 (Homo sapiens, UniProt Q15910+Q96SW2). The class given is cell-based, DOHH-2.
In series [16] the target is T3, Protein cereblon/Histone-lysine N-methyltransferase EZH2. The class given is cell-based, OCILY7.
Series [17] concerns the target T1, Histone-lysine N-methyltransferase EZH2. The source holds these as a separate data set.
In series [18] the target is T4, Histone-lysine N-methyltransferase EZH2 (Homo sapiens, UniProt Q15910, Y641F).
For series [19], the target named is T2, Histone-lysine N-methyltransferase EZH1. The source holds these as a separate data set.
The subject of series [20] is SU-DHL-6. The series is described as follows: cells. The class given is functional, cell-based. Conditions: Homo sapiens, SU-DHL-6, 96 h.
Series [21] deals with Pfeiffer. The series is described as follows: cells. The class given is functional, cell-based. The settings on record: Homo sapiens, 96 h.
The next series can be described thus: physchem. Conditions: buffer.
Series [22] has as its target T4, Histone-lysine N-methyltransferase EZH2. This is another data set of the same source.
Series [23] deals with T1, Histone-lysine N-methyltransferase EZH2. This is another data set of the same source.
The target is the same in series [24]. The source holds these as a separate data set.
The conditions of series [25]: mouse, in vivo.
Series [26] relates to KARPAS-422. The series is described as follows: animal or person. It counts as functional, Homo sapiens. The settings on record: Mus musculus, route po.
Series [27] addresses T1, Histone-lysine N-methyltransferase EZH2. The source holds these as a separate data set.
Series [28] deals with KARPAS-422. In words: cells. The class given is functional. The settings on record: Homo sapiens, time 10-15 day.
Series [29] addresses T2, Histone-lysine N-methyltransferase EZH1. The source holds these as a separate data set.
In series [30] the test system is MCF7. The series is described as follows: cells. The settings on record: Homo sapiens, MCF7, 96 h. The class given is functional, cell-based.
The test system of the next series is ZR-75-1. In words: cells. It counts as functional, cell-based. Conditions: Homo sapiens, ZR-75-1, 96 h.
Series [31] in a line: cells. The settings on record: Homo sapiens, MDA-MB-23.
A further series concerns MDA-MB-468. In words: cells. Conditions: Homo sapiens.
Series [32] concerns MCF7. The series is described as follows: cells. The settings on record: Homo sapiens.

T4 sequence (Q15910 whole entry Y641F): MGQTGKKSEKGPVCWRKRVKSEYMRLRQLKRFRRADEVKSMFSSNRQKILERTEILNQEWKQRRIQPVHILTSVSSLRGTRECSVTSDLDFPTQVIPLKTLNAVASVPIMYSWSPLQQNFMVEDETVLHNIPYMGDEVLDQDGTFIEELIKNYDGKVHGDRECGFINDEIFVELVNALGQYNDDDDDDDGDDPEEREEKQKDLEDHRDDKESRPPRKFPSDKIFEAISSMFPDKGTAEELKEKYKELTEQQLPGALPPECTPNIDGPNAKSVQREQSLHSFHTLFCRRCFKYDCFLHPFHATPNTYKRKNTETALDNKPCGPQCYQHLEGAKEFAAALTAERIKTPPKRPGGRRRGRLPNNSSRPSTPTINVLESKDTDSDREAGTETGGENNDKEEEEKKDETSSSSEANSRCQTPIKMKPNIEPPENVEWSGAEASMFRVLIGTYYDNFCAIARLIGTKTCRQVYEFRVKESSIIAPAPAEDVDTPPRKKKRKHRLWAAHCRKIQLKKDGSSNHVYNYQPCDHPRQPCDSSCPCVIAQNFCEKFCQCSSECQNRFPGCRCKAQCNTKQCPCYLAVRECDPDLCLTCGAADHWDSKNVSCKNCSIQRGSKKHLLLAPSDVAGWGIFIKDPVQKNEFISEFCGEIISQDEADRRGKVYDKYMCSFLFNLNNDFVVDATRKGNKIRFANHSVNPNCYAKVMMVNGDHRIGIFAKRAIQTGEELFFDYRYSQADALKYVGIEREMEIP
T1 sequence (Q15910 whole entry): as the sequence (Q15910 whole entry Y641F) above, with F641Y counted along it
T3 sequence (Q15910 whole entry): as the sequence (Q15910 whole entry Y641F) above, with F641Y counted along it
T3 sequence (Q96SW2 whole entry): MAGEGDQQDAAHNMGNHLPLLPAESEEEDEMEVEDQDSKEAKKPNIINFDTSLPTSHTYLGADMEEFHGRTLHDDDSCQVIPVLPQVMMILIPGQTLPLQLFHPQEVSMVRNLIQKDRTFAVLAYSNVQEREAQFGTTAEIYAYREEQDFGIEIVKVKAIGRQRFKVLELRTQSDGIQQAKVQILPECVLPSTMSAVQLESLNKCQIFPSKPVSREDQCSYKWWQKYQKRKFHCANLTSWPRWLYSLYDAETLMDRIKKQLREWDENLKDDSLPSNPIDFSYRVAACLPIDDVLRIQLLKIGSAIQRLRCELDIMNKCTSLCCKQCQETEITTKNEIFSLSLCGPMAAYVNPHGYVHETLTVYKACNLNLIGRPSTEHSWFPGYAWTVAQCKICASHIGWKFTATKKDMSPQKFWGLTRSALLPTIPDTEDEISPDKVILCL

As for `Nc1nccc2c1ncn2[C@@H]1C=C(CO)[C@@H](O)[C@H]1O`, the negative-log IC50 (pIC50) was 7.10 in [1]; 6.68 in the series with NCI-H1299; 7.10 with NCI-H1975; 6.72 with PC-3 [2]; 6.62 with A549. The half-life in “in vivo” is 1.1 h.
For `COc1cc2nc(N3CCN(C)CC3)nc(NC3CCN(Cc4ccccc4)CC3)c2cc1OC`, the pIC50 is 5.37 in the series on MDA-MB-231 [3], 5.47 in the series “cells [4]” and 5.68 with BT-474.
Molecule `CCC(CC)n1ccc2c(C(=O)NCc3c(C)cc(C)[nH]c3=O)cc(C#N)cc21` showed a negative logarithm of the IC50 (pIC50) in [5] of 7.89.
Regarding `CCN(c1cc(-c2ccc(CN3CCN(C)CC3)cc2)cc(C(=O)NCc2c3c(c(C)[nH]c2=O)CCCC3)c1C)C1CCOCC1`, the pIC50 was 4.80 in the series with SU-DHL-6 [6] and 7.90 with Pfeiffer [7].
Take `COc1ccc(C2SCCC(=O)N2Nc2nc3ccccc3[nH]2)cc1` (centres undefined): the “inhibition (INH)” value in the series with HepG2 [8] is recorded as 64%; in the series on MCF7 [12], 50.8%; with PC-3 [13], 36.7%. For the same molecule, the pIC50 with HepG2 [9] is 5.05; in the series on MCF7 [10], 4.78; with PC-3 [11], 4.57.
For `COc1cccc2nc(N3CCCN(C)CC3)cc(NC3CCN(C)CC3)c12`, the negative-log IC50 (pIC50) is 5.12 in the series with HCT-15 and 5.61 in the series with MDA-MB-231 [14].
As for `CCN(c1cc(-c2ccc(CN3CCN(C(=O)CCCCCCCNc4cccc5c4C(=O)N(C4CCC(=O)NC4=O)C5=O)CC3)cc2)cc(C(=O)NCc2c(C)cc(C)[nH]c2=O)c1C)C1CCOCC1` (centres undefined), the figures for the negative logarithm of the IC50 (pIC50) in [15] and in [16] were 7.00 and 7.22, respectively.
For `CCN(c1cc(-c2ccc(CN3CCN(C)CC3)cc2)cc(C(=O)NCc2c3c(c(C)[nH]c2=O)CCCC3)c1C)C1CCCCC1`, the negative logarithm of the IC50 (pIC50) is 8.01 in series [17]; 6.74 in series [18]; 6.86 in series [19]; 5.70 in the series with SU-DHL-6 [20]; 5.84 with Pfeiffer [21].
In turn, `CCN(c1cc(-c2ccccc2)cc(C(=O)NCc2c3c(c(C)[nH]c2=O)CCCC3)c1C)C1CCOCC1` registered a solubility in “physchem” of 185 µg/mL (≈ 361 µM).
In the case of `COc1cc(C)[nH]c(=O)c1CNC(=O)c1c(C)n(C(C)C2CCN(C)C(C(F)(F)F)C2)c2ccccc12` (centres undefined), the pIC50 in series [22] is over 7.00; in series [23] it was over 3.40; in series [24], over 7.00. The molecule also gave a CL in series [25] of 55 µL/min/mg.
As for `COC1CN([C@H]2CC[C@H]([C@@H](C)c3scc(C(=O)NCc4c(C)cc(C)[nH]c4=O)c3C)CC2)C1`, the pIC50 in series [22] was 9.03; in series [24], 8.84. Also, in the series on KARPAS-422 [26], the inhibition in vivo at 50 mg/kg was 53%.
`C=CC(=O)Nc1cc(-c2ccc(N3CCNCC3)nc2)cc(C(=O)NCc2c(CC)cc(C)[nH]c2=O)c1C` had a negative logarithm of the IC50 (pIC50) in [27] of 7.33.
For `CCN1CCN(c2ccc(-c3cc(C(=O)NCc4c(C)cc(C)[nH]c4=O)c(C)c4c3O[C@](C)(CN3CCOCC3)O4)cn2)CC1`, the GI50 in the series on KARPAS-422 [28] came to 210 nM.
In the case of `CCN(c1cc(-c2ccc(N3CCN(C)CC3)cc2)cc(C(=O)NCc2c3c(c(C)[nH]c2=O)CCCC3)c1C)C1CCOCC1`, the negative-log IC50 (pIC50) in series [18] is 7.82; in series [29], 7.09; in the series on MCF7 [30], 6.00; with ZR-75-1, 7.05.
`O=C(c1cc(Cc2n[nH]c(=O)c3ccccc23)ccc1F)N1CCN(C(=O)C2CC2)CC1` [OLAPARIB]: the negative-log IC50 (pIC50) in the series “cells [31]” is 4.43; in the series with MDA-MB-468 it was 4.45; in the series on MCF7 [32] it was under 4.30.

In general, pIC50 refers to the IC50 on a negative log10 scale, so that one unit is a factor of ten. The low end stands for a large IC50, the high end for a small IC50. A word on the half-life: it is how long it takes for the measured level to halve. Low readings indicate fast loss, high ones slow loss. One may read the solubility as the dissolved amount per volume that the medium holds. High values mean a readily soluble substance, low ones a poorly soluble substance. As usually defined, the inhibition in vivo is the share of the control response that was lost under treatment. Lower therefore signals little suppression. As a reminder, the GI50 is the concentration at which growth is held to half of that of the control. Higher therefore signals lower sensitivity of the cells.
